Data taken from patent US20250057813A1, “APOPTOSIS RELATED PROTEIN IN THE TGF-BETA SIGNALING PATHWAY (ARTS) MIMETIC COMPOUNDS, COMPOSITIONS, METHODS AND USES THEREOF IN INDUCTION OF APOPTOSIS” (Carmel-Haifa University Economic Corporation Ltd., priority 2022, published 2025).

Assays:
XIAP-BIR3 = biological target: T1, XIAP-BIR3 (Homo sapiens, UniProt P98170); assay: MST binding of B3 to fluorescently labelled recombinant XIAP; details: spread printed +/−11 μM, read-out: Kd, direct binding to XIAP-BIR3
T1 construct: fused on or other part: NT650 fluorescent dye attached covalently by maleimide coupling; the protein is otherwise untagged
Experimental: (§1) Microscale thermophoresis (MST) binding assays were performed by CreLux, a WuXi AppTech company in Germany, using recombinant ARTS, XIAP, Bcl-2 and cIAP1 proteins. Specifically, for performing experiments with untagged XIAP, a fluorescent label (NT650) was covalently attached to the protein (Maleimide coupling). The labelling was performed in a buffer containing 50 mM HEPES pH 7.0, 150 mM NaCl and 0.005% Tween-20.
as §1, with “ARTS” for “ARTS, XIAP, Bcl-2”, “XIAP” for “cIAP1”, “labeling” for “labelling”, “NaCl,” for “NaCl”, “Tween-20. A detailed description is provided in the Supplementary Materials and methods.” for “Tween-20.”

[1] = tested on: MG-63 osteosarcoma cell line; assay: Dose response of cell death with B3 relative to DMSO; format: cell-based; details: increasing doses of B3
[2] = biological target: T2, interaction between ARTS and Bcl2 (Homo sapiens, UniProt P10415); assay: BiFC assay between ARTS and Bcl-2; format: cell-based; details: 20 μM
T2 construct: expressed in transfected cells; host or cells: A-375 or HeLa wt cells (the legend names both)
Source text: The split-Venus BiFC system was used to evaluate close proximity indicating possible direct binding between pairs of proteins. The proteins were fused either to the N-terminal part of the Venus-YFP (yellow fluorescence protein) (VN) or the C-terminal part (VC). All Venus fragments were fused to the C-terminal sequences of these proteins. The Jun and Fos pair was used as a positive control (P.C.), and the Jun and FosdeltaZIP pair was used as a negative control (N.C.). A vector encoding dsRed was used as a transfection efficiency marker. Cells were seeded in 12 well plates overnight. Cells were then transfected with (Bcl-2-VC, ARTS-VN, XIAP-VN and XIAP-VC) for 24-36 hours. Cells were then treated with apoptotic inducing reagents for 24 hrs.

T2 sequence (P10415 whole entry): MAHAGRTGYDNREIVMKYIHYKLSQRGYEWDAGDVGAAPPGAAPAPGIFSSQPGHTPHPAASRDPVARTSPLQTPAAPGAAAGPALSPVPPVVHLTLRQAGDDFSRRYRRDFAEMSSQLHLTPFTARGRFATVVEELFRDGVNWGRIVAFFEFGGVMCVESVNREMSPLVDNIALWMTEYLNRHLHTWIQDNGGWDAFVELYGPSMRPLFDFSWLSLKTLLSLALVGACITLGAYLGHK
T1 sequence (P98170 241-356 limits assumed): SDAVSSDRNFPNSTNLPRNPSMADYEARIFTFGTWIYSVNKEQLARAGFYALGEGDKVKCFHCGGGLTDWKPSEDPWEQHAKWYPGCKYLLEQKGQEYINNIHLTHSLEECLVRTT

Kd (XIAP-BIR3): 36 µM | binding of ARTS to Bcl-2 ([2]; 3 hours): increase | binding of ARTS to Bcl-2 ([2]; 24 hours): no effect
Compound: Cn1ccnc1C(=O)c1ccc(NC(=O)C(=O)N[C@H](CO)Cc2ccccc2)cc1 [B3, (S)-N1-(1-hydroxy-3-phenylpropan-2-yl)-N2-(4-(1-methyl-1H-imidazole-2-carbonyl)phenyl)oxalamide]
cell death [1]: dose-dependent death
